Like-named read-outs stand apart in the source and are kept apart here.
What was measured:
AmpC (P. aeruginosa) = AmpC (P. aeruginosa) (Pseudomonas aeruginosa (strain ATCC 15692 / DSM 22644 / CIP 104116 / JCM 14847 / LMG 12228 / 1C / PRS 101 / PAO1), UniProt P24735); assay: biochemical
Description: The Class C enzyme activities were measured in the presence of the test inhibitor in spectrophotometric assay against the commercially available substrate, nitrocefin. The enzyme AmpC (P. aeruginosa.), and the substrate, were dissolved in 100 mM KH2PO4 buffer (pH 7). The buffer also contains 0.005% BSA. The test inhibitor was dissolved in DMSO and diluted 1:20 in the assay, resulting in a final concentration range of 50 μM to 0.0002 μM. In a 96-well microplate, the test inhibitor was incubated with the beta-lactamase enzyme for 40 minutes at ambient temperature, the substrate solution was added, and the incubation continued for another 40 minutes. […] The IC50 value was determined from semi logarithmic plots of enzyme inhibition versus inhibitor concentration, with a curve generated using a 4-parameter fit.

KPC-2 (K. pneumoniae) = KPC-2 (K. pneumoniae) (Klebsiella pneumoniae, UniProt Q9F663); assay: biochemical
KPC-2 (K. pneumoniae), sequence (Q9F663 25-293 limits assumed): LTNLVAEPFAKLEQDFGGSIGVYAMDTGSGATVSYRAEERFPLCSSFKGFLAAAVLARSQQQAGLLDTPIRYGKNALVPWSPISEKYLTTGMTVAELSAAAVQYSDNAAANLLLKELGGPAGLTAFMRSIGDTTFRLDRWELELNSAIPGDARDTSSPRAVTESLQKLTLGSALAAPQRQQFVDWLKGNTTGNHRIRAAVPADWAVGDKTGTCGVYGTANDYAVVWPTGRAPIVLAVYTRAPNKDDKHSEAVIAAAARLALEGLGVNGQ

[1] = Table 3, read-out: P.a. AmpC IC50
[2] = Table 3, read-out: K.p. KPC-2 IC50

AmpC (P. aeruginosa), sequence (P24735 27-397): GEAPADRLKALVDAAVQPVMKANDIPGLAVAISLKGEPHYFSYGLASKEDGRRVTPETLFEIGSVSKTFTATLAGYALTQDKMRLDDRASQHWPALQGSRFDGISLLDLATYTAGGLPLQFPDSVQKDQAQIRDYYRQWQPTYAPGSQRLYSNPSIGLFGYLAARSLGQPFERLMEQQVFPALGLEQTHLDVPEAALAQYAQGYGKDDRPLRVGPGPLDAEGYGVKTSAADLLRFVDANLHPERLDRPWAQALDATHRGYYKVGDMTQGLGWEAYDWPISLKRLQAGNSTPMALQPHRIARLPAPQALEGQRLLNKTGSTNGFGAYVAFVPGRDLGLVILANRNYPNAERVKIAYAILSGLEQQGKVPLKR

SMILES | IC50 (AmpC (P. aeruginosa); [1]) [nM] | IC50 (KPC-2 (K. pneumoniae); [2]) [nM] | IC50 (AmpC (P. aeruginosa)) [nM] | IC50 (KPC-2 (K. pneumoniae); K.p. KPC-2 IC50, Table 3) [nM]
O=C(Nc1ccc(CN2CCCC2)cc1)[C@@H]1CC[C@@H]2CN1C(=O)N2OS(=O)(=O)O [Example 63] | 22 | 85 |  | 
O=C(OCCC1CCNCC1)[C@@H]1CC[C@@H]2CN1C(=O)N2OS(=O)(=O)O [Example 112] |  | 13 | 165 | 
O=C(O[C@H]1CNCC[C@H]1F)[C@@H]1CC[C@@H]2CN1C(=O)N2OS(=O)(=O)O [Example 102] |  | 4 | 76 | 
O=C(NC[C@H]1CNCCCO1)[C@@H]1CC[C@@H]2CN1C(=O)N2OS(=O)(=O)O [Example 43] |  |  | 15 | 100
CN1CCN=C1NC(=O)[C@@H]1CC[C@@H]2CN1C(=O)N2OS(=O)(=O)O [Example 87] | 200 | 840 |  | 
NCCOC(=O)[C@@H]1CC[C@@H]2CN1C(=O)N2OS(=O)(=O)O [Example 110] | 610 | 30 |  | 
NCc1ccnc(NC(=O)[C@@H]2CC[C@@H]3CN2C(=O)N3OS(=O)(=O)O)c1 [Example 76] | 2 | 1300 |  | 
O=C(O[C@H]1CNCC[C@@H]1F)[C@@H]1CC[C@@H]2CN1C(=O)N2OS(=O)(=O)O [Example 101] |  | 15 | 81 | 
O=C(NCCC1CCNCC1)[C@@H]1CC[C@@H]2CN1C(=O)N2OS(=O)(=O)O [Example 44] | 11 | 45 |  | 
O=C(NC1CNC1)[C@@H]1CC[C@@H]2CN1C(=O)N2OS(=O)(=O)O [Example 20] | 1000 | 17 |  | 
O=C(N[C@H]1CCNC[C@@H]1F)[C@@H]1CC[C@@H]2CN1C(=O)N2OS(=O)(=O)O [Example 24] |  | 90 | 110 | 
O=C(O[C@@H]1CCCNCC1)[C@@H]1CC[C@@H]2CN1C(=O)N2OS(=O)(=O)O [Example 92] | 33000 | 6400 |  | 
CNCc1cccc(NC(=O)[C@@H]2CC[C@@H]3CN2C(=O)N3OS(=O)(=O)O)c1 [Example 61] |  | 78 | 22 | 
O=C(O[C@H]1CCNC[C@@H]1F)[C@@H]1CC[C@@H]2CN1C(=O)N2OS(=O)(=O)O [Example 100] | 33 | 4 |  | 
O=C(Nc1cccc(C2CCNCC2)n1)[C@@H]1CC[C@@H]2CN1C(=O)N2OS(=O)(=O)O [Example 79] | 270 | 24 |  | 
O=C(N[C@H]1CCN(C2CCNCC2)C1=O)[C@@H]1CC[C@@H]2CN1C(=O)N2OS(=O)(=O)O [Example 33] |  | 21 | 620 | 
O=C(N[C@@H]1CNC[C@@H]1F)[C@@H]1CC[C@@H]2CN1C(=O)N2OS(=O)(=O)O [Example 31] |  |  | 150 | 190
O=C(NC1C2CNCC21)[C@@H]1CC[C@@H]2CN1C(=O)N2OS(=O)(=O)O (stereo partly shown) [Example 47] | 720 | 10000 |  | 
CN(C)c1ccnc(NC(=O)[C@@H]2CC[C@@H]3CN2C(=O)N3OS(=O)(=O)O)c1 [Example 75] | 3 | 410 |  | 

SMILES | IC50 (AmpC (P. aeruginosa); [1]) [nM] | IC50 (KPC-2 (K. pneumoniae); [2]) [nM] | IC50 (AmpC (P. aeruginosa)) [nM] | IC50 (KPC-2 (K. pneumoniae); K.p. KPC-2 IC50, Table 3) [nM]
O=C(Nc1ccc(N2CCOCC2)cn1)[C@@H]1CC[C@@H]2CN1C(=O)N2OS(=O)(=O)O [Example 81] | 5 | 17 |  | 
O=C([C@@H]1CC[C@@H]2CN1C(=O)N2OS(=O)(=O)O)N1CCNCC1 [Example 51] | 2200 | 520 |  | 
N[C@@H]1CNC[C@H]1NC(=O)[C@@H]1CC[C@@H]2CN1C(=O)N2OS(=O)(=O)O [Example 28] | 740 | 660 |  | 
O=C([C@@H]1CC[C@@H]2CN1C(=O)N2OS(=O)(=O)O)N1CC2(CCNCC2)C1 [Example 52] |  | 1000 | 590 | 
O=C(OCCN1CCCCC1)[C@@H]1CC[C@@H]2CN1C(=O)N2OS(=O)(=O)O [Example 111] | 1200 | 20 |  | 
O=C(NC1CCS(=O)(=O)CC1)[C@@H]1CC[C@@H]2CN1C(=O)N2OS(=O)(=O)O [Example 27] | 9.5 | 150 |  | 
O=C(O[C@@H]1CCNC[C@H]1F)[C@@H]1CC[C@@H]2CN1C(=O)N2OS(=O)(=O)O [Example 99] | 40 | 8 |  | 
N[C@@H]1CCN(C(=O)[C@@H]2CC[C@@H]3CN2C(=O)N3OS(=O)(=O)O)C1 [Example 54] | 840 | 3200 |  | 
O=C(OC1CCNCC1)[C@@H]1CC[C@@H]2CN1C(=O)N2OS(=O)(=O)O [Example 93] |  | 9 | 170 | 
NCc1cccc(NC(=O)[C@@H]2CC[C@@H]3CN2C(=O)N3OS(=O)(=O)O)c1 [Example 58] |  | 104 | 34 | 
O=C(O[C@H]1CNC[C@@H]1F)[C@@H]1CC[C@@H]2CN1C(=O)N2OS(=O)(=O)O [Example 106] |  | 10 | 200 | 
O=C(Nc1nccs1)[C@@H]1CC[C@@H]2CN1C(=O)N2OS(=O)(=O)O [Example 88] | 1.8 | 36 |  | 
O=C(NCC1CCCCN1)[C@@H]1CC[C@@H]2CN1C(=O)N2OS(=O)(=O)O (stereo partly shown) [Example 39] | 530 | 190 |  | 
O=C(Nc1ccc2c(c1)CCN2)[C@@H]1CC[C@@H]2CN1C(=O)N2OS(=O)(=O)O [Example 66] | 56 | 41 |  | 
O=C(N[C@H]1CNC[C@H]1F)[C@@H]1CC[C@@H]2CN1C(=O)N2OS(=O)(=O)O [Example 32] |  |  | 19 | 710
NCc1ccc(NC(=O)[C@@H]2CC[C@@H]3CN2C(=O)N3OS(=O)(=O)O)cc1 [Example 57] | 20 | 72 |  | 
N[C@H]1CCN(C(=O)[C@@H]2CC[C@@H]3CN2C(=O)N3OS(=O)(=O)O)C1 [Example 55] | 1400 | 1500 |  | 
O=C(NCCN1CCCCC1)[C@@H]1CC[C@@H]2CN1C(=O)N2OS(=O)(=O)O [Example 45] | 180 | 150 |  | 
O=C(N[C@@H]1CCN(C2CCNCC2)C1=O)[C@@H]1CC[C@@H]2CN1C(=O)N2OS(=O)(=O)O [Example 34] |  | 280 | 45 | 

SMILES | IC50 (AmpC (P. aeruginosa); [1]) [nM] | IC50 (KPC-2 (K. pneumoniae); [2]) [nM] | IC50 (AmpC (P. aeruginosa)) [nM] | IC50 (KPC-2 (K. pneumoniae); K.p. KPC-2 IC50, Table 3) [nM]
O=C(Nc1ccc(N2CCCC2)cn1)[C@@H]1CC[C@@H]2CN1C(=O)N2OS(=O)(=O)O [Example 82] | 4 | 10 |  | 
O=C(Nc1ccncn1)[C@@H]1CC[C@@H]2CN1C(=O)N2OS(=O)(=O)O [Example 84] | 0.8 | 55 |  | 
O=C(OC1CNNC1)[C@@H]1CC[C@@H]2CN1C(=O)N2OS(=O)(=O)O [Example 109] | 700 | 62 |  | 
NCc1ccc(OC(=O)[C@@H]2CC[C@@H]3CN2C(=O)N3OS(=O)(=O)O)cc1 [Example 115] | 24 | 2 |  | 
O=C(O)c1ccc(NC(=O)[C@@H]2CC[C@@H]3CN2C(=O)N3OS(=O)(=O)O)cc1 [Example 67] | 11 | 10 |  | 
Cn1ccnc1NC(=O)[C@@H]1CC[C@@H]2CN1C(=O)N2OS(=O)(=O)O [Example 86] | 240 | 135 |  | 
O=C(N[C@@H]1CCCNC[C@@H]1F)[C@@H]1CC[C@@H]2CN1C(=O)N2OS(=O)(=O)O [Example 35] | 13 | 150 |  | 
O=C(NC1CCCNC1)[C@@H]1CC[C@@H]2CN1C(=O)N2OS(=O)(=O)O (stereo partly shown) [Example 19a] | 64 | 480 |  | 
CNCc1ccc(NC(=O)[C@@H]2CC[C@@H]3CN2C(=O)N3OS(=O)(=O)O)cc1 [Example 60] | 18 | 56 |  | 
O=C(Nc1ccc2c(c1)CCNC2)[C@@H]1CC[C@@H]2CN1C(=O)N2OS(=O)(=O)O [Example 16, (2S,5R)-7-Oxo-6-(sulfooxy)-N-(1,2,3,4-tetrahydroisoquinolin-6-yl)-1,6-diazabicyclo[3.2.1]octane-2-carboxamide] |  | 19 | 14 | 
O=C(N[C@H]1CCNC[C@H]1F)[C@@H]1CC[C@@H]2CN1C(=O)N2OS(=O)(=O)O [Example 15, (2S,5R)—N-[(3R,4S)-3-Fluoropiperidin-4-yl]-7-oxo-6-(sulfooxy)-1,6-diazabicyclo[3.2.1]octane-2-carboxamide] |  | 130 | 49 | 
O=C(O[C@H]1CCNC1)[C@@H]1CC[C@@H]2CN1C(=O)N2OS(=O)(=O)O [Example 95] |  | 21 | 210 | 
CC(=O)Oc1ccc(C(=O)NCC(CNC(=O)c2ccc(OC(C)=O)c(OC(C)=O)c2)OC(=O)[C@@H]2CC[C@@H]3CN2C(=O)N3OS(=O)(=O)O)cc1OC(C)=O [Example 117] | 61 | 12 |  | 
CC1(COC(=O)[C@@H]2CC[C@@H]3CN2C(=O)N3OS(=O)(=O)O)CCNCC1 [Example 113] | 36 | 8 |  | 
CN1CCC(NC(=O)[C@@H]2CC[C@@H]3CN2C(=O)N3OS(=O)(=O)O)CC1 [Example 23] | 500 | 240 |  | 
O=C(O[C@H]1CCCNCC1)[C@@H]1CC[C@@H]2CN1C(=O)N2OS(=O)(=O)O [Example 91] | 83 | 6 |  | 
O=C(Nc1ccccn1)[C@@H]1CC[C@@H]2CN1C(=O)N2OS(=O)(=O)O [Example 72] | 1.2 | 36 |  | 
O=C([C@@H]1CC[C@@H]2CN1C(=O)N2OS(=O)(=O)O)N1CC2CNCC2C1 (stereo partly shown) [Example 53] |  | 33 | 1000 | 
